Results published in US10294234B2, “HIV inhibitor compounds” (priority 2017, dated 2019).

Assays:
[1] = 3H Human Predicted Clearance Assay (tritiated analogs); type: in vitro ADME; design: unit not given here; conditions: tritiated analogs, human liver microsomes
Description: 3H Human Predicted Clearance Assay:
For certain compounds, tritiated analogs (H^3) were prepared to further determined their human predicted clearance with increased resolution. Those studies were performed as described above using the tritiated analogs. Data from those compounds is found in Table 2 below and reported in FIG. 1 (note ATV and DRV were not tritiated).

[2] = male beagle dogs, IV infusion over 30 minutes, 0.5 or 1.0 mg/kg

Structure (SMILES): COC(=O)N[C@H](C(=O)N[C@@H](Cc1ccc(C#Cc2ccc(N3CC4CCC(C3)N4C3COC3)nc2)cc1)[C@@H](O)CN(Cc1c(F)cc(-c2ccn(C(F)F)n2)cc1F)NC(=O)[C@@H](NC(=O)OC)C(C)(C)C(F)(F)F)C(C)(C)C(F)(F)F [Example 58, Methyl ((5S,8S,9S,14S)-11-(4-(1-(difluoromethyl)-1H-pyrazol-3-yl)-2,6-difluorobenzyl)-16,16,16-trifluoro-9-hydroxy-15,15-dimethyl-8-(4-((6-(8-(oxetan-3-yl)-3,8-diazabicyclo[3.2.1]octan-3-yl)pyridin-3-yl)ethynyl)benzyl)-3,6,13-trioxo-5-(1,1,1-trifluoro-2-methylpropan-2-yl)-2-oxa-4,7,11,12-tetraazahexadecan-14-yl)carbamate]
- 3H Human Predicted Cl. [1]: 0.05
- DOG IV CL (in vivo; [2]): 7.83 mL/min/kg
- DOG IV T1/2 (in vivo; [2]): 13.8 h
- DOG PO F (in vivo; male beagle dogs, oral gavage, PO dose 2 mg/kg): 18%
- Vd (in vivo; male, beagle, dog, plasma, iv): 6.34 L/kg
